# Source: patent US4395969A (priority 1981, dated 1983)
# “And” between values parts separate entries of the source, which are not always exact repeats. Equal values may be shown once. Read-outs that look alike come from different tables or passages of the source.
# What was measured:
# [1] = tested on: crayfish; test: Long-term static bioassay, crayfish; conditions: 2 μg/l; one also missing in control
# [2] = tested on: brook stickleback; test: Static bioassay, lethal concentration to brook stickleback; assay type: in vivo, Eucalia inconstans; conditions: 15 C
# Method: (§1) Bioassays utilized water from an artesian well at Moscow, Idaho and from the headwaters of the Palouse River, also in Idaho. The chemical characteristics of the artesian water were analyzed as follows: Total hardness 67-120 mg/l; total dissolved solids, 160-175 mg/l; and pH 7.1. The chemistry of the Palouse River water was analyzed as follows: total hardness 17 mg/l; methyl orange alkalinity 26 mg/l; total dissolved solids, 32 mg/l and pH, 7.0.
# (§2) Fish were acclimated to test temperatures, usually at 5, 7.5, 10, 15 and 20 degrees Celsius (C), at least 60 hours before exposure to toxicants. For fish and crayfish four water baths regulated the temperature of assay aquaria. Each water bath contained a battery of 20 identical 19-liter clear glass containers or 11.4-liter plastic aquaria lined with disposable polyethylene bags and covered with Plexiglass lids to reduce evaporation. For larger fish and large numbers of fish the bioassays were made in two temperature controlled rooms that contained a series of 700-liter circular fiberglass vats and a series of 76- and 91-liter plastic containers.
# (§3) Standard bioassay techniques were used in sorting fish and conducting the tests. Fish were placed in aerated test aquaria overnight to permit fish to recover from stress due to handling and to deprive them of food. The average load varied but most bioassays were conducted with about 1 g of fish per liter of water.
# (§4) Aliquots of organophosphates were dissolved in ethanol and dispensed to the aquaria to provide concentrations suitable for obtaining the LC0 and LC50 of desirable fish and the LC50 and LC100 of target fish. Control fish were conditioned in the same manner as the test fish, but no chemical was added to the control vessels during the assays. After the addition of a chemical, observations were made mainly at 3, 6, 12, 24, 48, 96, and 192 h. The weight and fork length of fish were obtained when fishes were sacrificed.
# (§5) Delineation bioassays determined primarily the LC50 and LC100 of sucker and stickleback and the LC0 and LC50 of salmonids.
# (§6) The statistical LC1, LC50, and LC99 were interpolated and/or extrapolated using probit graph paper to approximate the LC0, LC50, and LC100 when the latter set of values was not closely determined by single concentrations in a series.
# (§7) The approximate LC50 and LC100 of the target fishes (threespine and brook sticklebacks and bridgelip and white suckers) are tabulated in Table 1. The 96-hour selectivity and safety indices of selected species of salmonids versus the three-spine stickleback are tabulated in Table 3.
# (§8) Threespine stickleback, brook stickleback, bridgelip sucker, white sucker, chinook salmon, coho salmon, sockeye salmon, kokanee, Kamloops trout, cutthroat trout, and brook trout were treated with various concentrations of 2, 2, 2, 1-tetrachloroethyl diethyl phosphate and at various temperatures to determine approximate selectivity and safety indices. The approximate LC50 and LC100 of the target fishes (threespine and brook sticklebacks and bridgelip and white suckers) are tabulated in Table 5. The 96-hour selectivity and safety indices of selected species of salmonids versus the threespine stickleback are tabulated in Table 7.
# [3] = tested on: threespine stickleback; set-up: species or system Gasterosteus aculeatus; conditions: in vivo
# [4] = tested on: chinook salmon; test: Long-term static bioassay, chinook salmon; conditions: 64 days, 10 C, individually
# [5] = tested on: crayfish; test: Bioassay, crayfish; assay type: in vivo, Pacifasticus klamathensis; conditions: 10 C
# Method: Cursory bioassays were made with small numbers of other fishes and a crayfish (Pacifasticus klamathensis) to check on the universal selectivity of the toxicants. The fishes included Arctic grayling (Thymallus arcticus), longnose sucker (C. catastomus), largescale sucker, (C. macrocheilus), and spotted sucker (Minytrema melanops).
# A series of bioassays tested crayfish (9 to 10 crayfish per aquarium) at concentrations of 1, 3, and 10 mg/l of 2, 2-dichlorovinyl diethyl phosphate. […] A second series of bioassays tested crayfish (10 crayfish per aquarium) at 10 concentrations of 2, 2, 2, 1-tetrachloroethyl diethyl phosphate (range, 0 to 1400 μg/l).
# [6] = tested on: sucker and stickleback; conditions: in vivo
# [7] = tested on: threespine stickleback; test: Long-term static bioassay, threespine stickleback; conditions: 32 days, 10 C, individually
# [8] = tested on: Salmonella, five strains; test: Salmonella standard plate test for mutagens/carcinogens; conditions: 0.5, 5, 50, 500, and 5000 mg/l
# [9] = Half-life / degradation in water (gas chromatograph analysis); assay type: physicochemical; conditions: river water, 15 C
# Source text: The presence of bacteria and other microorganisms affect the rate of degradation of the dichloro- and tetrachloro-compounds. Because of this the chemicals break down much faster in river water than in artesian well water or distilled water. For short term bioassays the potencies of the chemicals were not affected by the chemistry of the water.
# [10] = tested on: threespine stickleback; set-up: species or system Gasterosteus aculeatus; conditions: in vivo; remark: listed apart in the source
# [11] = tested on: sockeye salmon; test: Static bioassay, lethal concentration to sockeye salmon; assay type: in vivo, O. nerka
# Method: as §1, §2, §3, §4, §5, §6, §7, §8
# [12] = as above; assay type: in vivo, O. nerka; conditions: sockeye salmon, in vivo
# Method: as §1, §2, §3, §4, §5, §6, §7, §8
# [13] = tested on: white sucker; test: Static bioassay, lethal concentration to white sucker; assay type: in vivo, C. commmersoni
# Method: as §1, §2, §3, §4, §5, §6, §7, §8
# [14] = tested on: coho salmon; test: Long-term static bioassay, coho salmon; conditions: 64 days, 10 C, individually
# [15] = Half-life in river water with or without river mud, measured by bioassay with stickleback; assay type: physicochemical; conditions: river water with layer of river mud; 15 C
# Method: The rate of deactivation was measured by bioassay with stickleback and the data were analyzed by conventional methods.
# [16] = tested on: chinook salmon; test: Deactivation with potassium permanganate, mortality of chinook salmon; assay type: in vivo, O. tschawytscha
# [17] = 6 μg/l (or less), listed as 2, 2, 2, 1-tetrachloroethyl diethyl phosphate
# [18] = 10 C, individually, read-out: LC50
# [19] = with 2 Cl 1:300, 10 C, read-out: LC50 in combination, 4 Cl component
# [20] = 300 μg/l, listed as 2, 2-dichlorovinyl diethyl phosphate
# [21] = with 4 Cl 300:1, 10 C, read-out: LC50 in combination, 2 Cl component
structure (smiles),measurement,setting,value
"CCOP(=O)(OCC)OC(Cl)C(Cl)(Cl)Cl (stereo not drawn) [2,2,2,1-tetrachloroethyl diethyl phosphate]",crayfish missing,[1],one
same,LC50,[2]; 24 h,0.006 mg/L
same,LC100,[2]; 24 h,0.01 mg/L
same,LC100,[2]; 48 h,0.008 mg/L
same,LC100,[2]; 96 h,0.006 mg/L
same,Safety index (LC0/LC100),[3]; 5760 min,2.3
same,mortality,[4]; 6 μg/l (or less),Essentially no mortality
same,mortality,[4]; [17],no significant mortality
same,concentration at which no crayfish died,[5]; 96 h,≤ 200 µg/L
same,activity relative to the dichloro-compounds,[6],about 100 times
same,recommended safe and effective concentration,[6],20 µg/L
same,mortality,[7]; 4 μg/l,100%
same,mutagenic activity,[8],no mutagenic activity
same,half-life,[9],~11 days
same,"LC50 in combination, 4 Cl component",[10],1.0 µg/L and 0.67 µg/L
same,concentration achieving 100% mortality,[10],7 mg/L
same,LC0,"[11]; 7.5 C, 48 h",36 µg/L
same,LC0,"[11]; 7.5 C, 96 h",14 µg/L
same,LC0,"[11]; 7.5 C, 192 h",10 µg/L
same,LC0,"[11]; 10 C, 48 h",20 µg/L
same,LC50,"[11]; 10 C, 96 h, individually",17 µg/L
same,LC0,"[11]; 10 C, 96 h, individually, listed as 2, 2, 2, 1-tetrachloroethyl diethyl phosphate",12 µg/L and 10 µg/L
same,LC0,"[11]; 10 C, 96 h, individually, listed as 4 Cl",12 µg/L
same,LC0,"[11]; 10 C, 192 h",10 µg/L
same,LC50,"[11]; 10 C, 192 h, individually, listed as 4 Cl, 11520 min",15 µg/L
same,LC50 at 48 h,[12]; 7.5 C,0.05 µg/mL
same,LC50 at 96 h,"[12]; 7.5 C, read-out: LC50",0.02 µg/mL
same,LC50 at 192 h,"[12]; 7.5 C, read-out: LC50",0.014 µg/mL
same,LC50 at 48 h,[12]; 10 C,0.03 µg/mL
same,LC50 at 96 h,[12]; [18],0.017 µg/mL
same,LC50 at 192 h,[12]; [18],0.016 µg/mL
same,LC50 at 96 h,[12]; [19],0.008 µg/mL
same,LC50 at 192 h,[12]; [19],0.006 µg/mL
same,LC50,"[13]; 15 C, 24 h",0.004 mg/L
same,LC100,"[13]; 15 C, 24 h",10 µg/L
same,LC50,"[13]; 15 C, 48 h",< 0.003 mg/L
same,LC100,"[13]; 15 C, 48 h",10 µg/L
same,mortality,[14]; 6 μg/l (or less),Essentially no mortality
same,mortality,[14]; [17],no significant mortality
"CCOP(=O)(OC=C(Cl)Cl)OCC [2,2-dichlorovinyl diethyl phosphate]",LC50,[2]; 24 h,0.8 mg/L
same,LC100,[2]; 24 h,1.0 mg/L
same,LC50,[2]; 48 h,0.4 mg/L
same,LC100,[2]; 48 h,0.6 mg/L
same,LC50,[2]; 96 h,0.4 mg/L
same,LC100,[2]; 96 h,0.6 mg/L
same,LC50,[2]; 192 h,0.3 mg/L
same,LC100,[2]; 192 h,0.6 mg/L
same,Selectivity index (LC50/LC50),[3],5.7
same,mortality,[4]; 300 μg/l,essentially no mortality
same,mortality,[4]; [20],no significant mortality
same,crayfish mortality,"[5]; 1 mg/l, 96 h",No crayfish died
same,crayfish mortality,"[5]; 3 mg/l, 96 h",1 out of 9 crayfish died
same,crayfish mortality,"[5]; 10 mg/l, 24 h",No crayfish died
same,potency for suckers relative to stickleback,[6],about 10 times
same,mortality,[7]; 600 μg/l,65%
same,mutagenic activity,[8],no mutagenic activity
same,half-life,[9],< 20 days
same,half-life,[15],15 days
same,"LC50 in combination, 2 Cl component",[10],300 µg/L and 200 µg/L
same,LC0,"[11]; 7.5 C, 48 h",> 10000 µg/L
same,LC0,"[11]; 7.5 C, 96 h",6000 µg/L
same,LC0,"[11]; 7.5 C, 192 h",2000 µg/L
same,LC0,"[11]; 10 C, 48 h",6000 µg/L
same,LC0,"[11]; 10 C, 96 h",3000 µg/L
same,LC0,"[11]; 10 C, 96 h, individually, listed as 2, 2-dichlorovinyl diethyl phosphate",3000 µg/L
same,LC0,"[11]; 10 C, 96 h, individually, listed as 2 Cl",3600 µg/L
same,LC0,"[11]; 10 C, 192 h",2000 µg/L
same,LC50 at 48 h,[12]; 7.5 C,> 10 µg/mL
same,LC50 at 96 h,"[12]; 7.5 C, read-out: LC50",9 µg/mL
same,LC50 at 192 h,"[12]; 7.5 C, read-out: LC50",4 µg/mL
same,LC50 at 48 h,[12]; 10 C,> 8 µg/mL
same,LC50 at 96 h,[12]; [18],6 µg/mL
same,LC50 at 96 h,"[12]; 10 C, read-out: LC50",6 µg/mL
same,LC50 at 192 h,[12]; [18],3.6 µg/mL
same,LC50 at 192 h,"[12]; 10 C, read-out: LC50",3.4 µg/mL
same,LC50 at 96 h,[12]; [21],2.4 µg/mL
same,LC50 at 192 h,[12]; [21],1.8 µg/mL
same,deactivation by 1 equivalent weight of permanganate,[16]; 15 C,about 25%
same,effect of potassium permanganate on mortality,[16]; excessive concentrations of 2 Cl,delayed mortality
same,LC50,"[13]; 20 C, 24 h",0.10 mg/L
same,LC50,"[13]; 20 C, 48 h",0.07 mg/L
same,LC50,"[13]; 20 C, 96 h",0.06 mg/L
same,LC100,"[13]; 20 C, 96 h",100 µg/L
same,LC50,"[13]; 20 C, 192 h",0.05 mg/L
same,LC100,"[13]; 20 C, 192 h",100 µg/L
same,mortality,[14]; 300 μg/l,essentially no mortality
same,mortality,[14]; [20],no significant mortality
